# Experimental data taken from patent publication US11446287B2, “Compounds and methods for EP300 or CBP modulation and indications therefor” (Opna Immuno-Oncology SA, priority 2019, dated 2022).
# Molecular target: T1, Recombinant human EP300 containing the bromodomain (EP300-BD (1040-1161)) (Homo sapiens, UniProt Q09472)
# T1 construct: Recombinant human EP300 bromodomain (EP300-BD (1040-1161)); made in house; host or cells: E. coli BL21-CodonPlus (DE3), modified pET vector
# T1 sequence (Q09472 1040-1161): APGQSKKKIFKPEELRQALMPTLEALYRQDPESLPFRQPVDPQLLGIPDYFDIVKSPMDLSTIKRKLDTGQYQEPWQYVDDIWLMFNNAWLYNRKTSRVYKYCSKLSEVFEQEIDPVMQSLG
# Assay: EP300 Alphascreen binding assay
# Protocol: EP300 Alphascreen Binding Assay
# Binding of compounds of Formula (I) with EP300 was assessed using Alphascreen™ binding assay. The inhibition of the interaction between the EP300 bromodomain and its acetylated target protein was measured quantitatively using recombinant EP300 protein, an acetylated Histone 3 peptide and AlphaScreen™ technology. In absence of inhibition of the EP300 protein bound to AlphaScreen™ nickel chelate acceptor beads can interact with the acetylated Histone 3 peptide which is immobilized by the AlphaScreen™ Streptavidin coated beads. This interaction brings donor and acceptor beads in proximity. The close proximity allows the singlet oxygen produced by laser excitation of the donor beads to reach the acceptor beads and generate a luminescence signal. EP300 inhibitors result in a decrease in the proximity signal through an inhibition of the EP300—acetylated peptide interaction.
# Recombinant human EP300 containing the bromodomain (EP300-BD (1040-1161)) was prepared and purified as described in protein expression and purification session. The peptide is human Histone H345-64K56Ac-Biotin (Anaspec CA, USA).
# Protocol for EP300 assay: All components were prepared in buffer composed of 50 mM HEPES pH 7.5, 50 mM NaCl, 0.01% BSA, 0.01% Triton X-100, 2 mM DTT. Test compounds and DMSO vehicle were diluted 1:50 in buffer and a 4 μL volume is transferred to an Alphaplate. 5.5 μL of EP300 protein and 5.5 μL of peptide were added to wells containing 4 μL of various concentrations of test compounds of Formula (I) or DMSO vehicle in an Alphaplate (PerkinElmer GA, USA) and incubated for 1 hour at room temperature. 5 μL donor and acceptor bead mixture was then added with final concentrations of 7.5 μg/ml. 60 minutes after bead addition, Alpha signal is read on the Envision spectrometer (λEx 680 nm, λEm 520-620 nm). Final concentrations of bromodomain proteins and peptide are as shown below.
# All data were normalized to the mean of 16 high and 16 low control wells on each plate. A four parameter curve fit of the following formula was then applied: Y=A+((B−A)/(1+((C/x)^D))) Where ‘A’ is the minimum, ‘B’ is the maximum, ‘C’ is the IC50 and ‘D’ is the Hill slope. Protein Expression and Purification
# Recombinant human EP300 bromodomain (EP300-BD (1040-1161)) was expressed in E. coli cells (in a modified pET vector) with an N-terminal six-His tag and purified using a combination of both IMAC (Ni-affinity) and size exclusion chromatography steps.
# Recombinant EP300 protein was expressed using the E. coli strain BL21-CodonPlus (DE3) (Agilent Technologies CA, USA). Cells were grown in Terrific Broth (TB) media to an OD600 of 0.7 at 37° C. at which temperature was reduced to 18° C., protein was induced with 1.0 mM isopropyl-β-D-thiogalactopyranoside (“IPTG”) for 20 hours and harvested by centrifugation at 8500×g for 20 minutes. Cells were re-suspended in 0.1M K2PO4 pH 8.0, 250 mM NaCl, 10% Glycerol, 0.75% NP-40, 25 mM Imidazole, with 0.2 mg/ml Lysozyme, 0.2 mM phenylmethanesulfonyl fluoride (“PMSF”), 25 μg/ml DNase I, incubated on ice for 30 minutes and lysed with a cell disruptor (MicroFluidics MA, USA). The lysate was clarified by centrifugation at 20,000×g for 1 hour. The protein was captured with Ni-NTA resin (Life Technologies, USA). Contaminating proteins were washed off with 50 mM HEPES pH 7.5, 500 mM NaCl, and 5% Glycerol. Following 3× wash steps, protein was eluted step wise using 10, 25, 50, 100, 150, and 250 mM Imidazole in 50 mM HEPES pH 7.5, 500 mM NaCl, and 5% glycerol. The protein was further purified using a size exclusion column (26/600 Superdex 200, GE Biosciences NJ, USA) in 10 mM HEPES pH 7.5, […].
row,Structure (SMILES),IC50 [µM]
1,"Cc1noc(C)c1-c1cnc2c(-c3cc(C(=O)O)ccc3Cl)cn(C(C)(c3ccccn3)c3ccccn3)c2c1 [P-0164, 4-chloro-3-(1-(1,1-di(pyridin-2-yl)ethyl)-6-(3,5-dimethylisoxazol-4-yl)-1H-pyrrolo[3,2-b]pyridin-3-yl)benzoic acid]",0.0001 to 1
2,"COc1cc(C(=O)O)cc(OC)c1-c1cn([C@@H](C)c2ccccn2)c2cc(-c3c(C)noc3C)cnc12 [P-0146, (S)-4-(6-(3,5-dimethylisoxazol-4-yl)-1-(1-(pyridin-2-yl)ethyl)-1H-pyrrolo[3,2-b]pyridin-3-yl)-3,5-dimethoxybenzoic acid]",1 to 8
3,"Cc1noc(C)c1-c1cnc2c(CC3CC3)cn(-c3ccc(C(=O)O)cn3)c2c1 [P-0010, 6-(3-(cyclopropylmethyl)-6-(3,5-dimethylisoxazol-4-yl)-1H-pyrrolo[3,2-b]pyridin-1-yl)nicotinic acid]",0.0001 to 1
4,"Cc1noc(C)c1-c1cnc2c(c1)c(-c1c(OC(C)C)cc(C(=O)O)cc1OC(C)C)cn2[C@@H](C)c1ccccn1 [P-0118, (S)-4-(5-(3,5-dimethylisoxazol-4-yl)-1-(1-(pyridin-2-yl)ethyl)-1H-pyrrolo[2,3-b]pyridin-3-yl)-3,5-diisopropoxybenzoic acid]",0.0001 to 1
5,"Cc1noc(C)c1-c1cnc2c(C(=O)c3cccc(OC(F)F)c3)cn(-c3c(Cl)cc(C(=O)O)cc3Cl)c2c1 [P-0129, 3,5-dichloro-4-(3-(3-(difluoromethoxy)benzoyl)-6-(3,5-dimethylisoxazol-4-yl)-1H-pyrrolo[3,2-b]pyridin-1-yl)benzoic acid]",0.0001 to 1
6,"Cc1noc(C)c1-c1cnc2c(c1)c(-c1ccc(C(=O)O)cc1OCc1ccccc1)cn2[C@@H](C)c1ccccn1 [P-0139, (S)-3-(benzyloxy)-4-(5-(3,5-dimethylisoxazol-4-yl)-1-(1-(pyridin-2-yl)ethyl)-1H-pyrrolo[2,3-b]pyridin-3-yl)benzoic acid]",0.0001 to 1
7,"Cc1noc(C)c1-c1cnc2c(CC3CCC3)cn(-c3ccc(O)nc3)c2c1 [P-0143, 5-(3-(cyclobutylmethyl)-6-(3,5-dimethylisoxazol-4-yl)-1H-pyrrolo[3,2-b]pyridin-1-yl)pyridin-2-ol]",1 to 8
8,"CC[C@@H](c1ccccn1)n1cc(-c2cc(C(=O)O)ccc2Cl)c2ncc(-c3c(C)noc3C)cc21 [P-0148, (S)-4-chloro-3-(6-(3,5-dimethylisoxazol-4-yl)-1-(1-(pyridin-2-yl)propyl)-1H-pyrrolo[3,2-b]pyridin-3-yl)benzoic acid]",0.0001 to 1
9,"CCCOc1cc(C(=O)O)ccc1-c1cn([C@@H](C)c2ccccn2)c2ncc(-c3c(C)noc3C)cc12 [P-0113, (S)-4-(5-(3,5-dimethylisoxazol-4-yl)-1-(1-(pyridin-2-yl)ethyl)-1H-pyrrolo[2,3-b]pyridin-3-yl)-3-propoxybenzoic acid]",0.0001 to 1
10,"COc1cc(C(=O)O)ccc1-c1cn([C@@H](C)c2ccccn2)c2cc(-c3c(C)noc3C)cnc12 [P-0142, (S)-4-(6-(3,5-dimethylisoxazol-4-yl)-1-(1-(pyridin-2-yl)ethyl)-1H-pyrrolo[3,2-b]pyridin-3-yl)-3-methoxybenzoic acid]",0.0001 to 1
11,"Cc1noc(C)c1-c1cnc2c(c1)c(-c1ccc(C(=O)O)cc1OC(F)(F)F)cn2-c1ccccn1 [P-0158, 4-(5-(3,5-dimethylisoxazol-4-yl)-1-(pyridin-2-yl)-1H-pyrrolo[2,3-b]pyridin-3-yl)-3-(trifluoromethoxy)benzoic acid]",0.0001 to 1
12,"CCOc1cc(C(=O)O)cc(OCC)c1-n1cc(C(O)(C2CC2)C2CC2)c2ncc(-c3c(C)noc3C)cc21 [P-0165, 4-(3-(dicyclopropyl(hydroxy)methyl)-6-(3,5-dimethylisoxazol-4-yl)-1H-pyrrolo[3,2-b]pyridin-1-yl)-3,5-diethoxybenzoic acid]",0.0001 to 1
13,"Cc1noc(C)c1-c1cnc2c(Cc3cccc(Cl)c3)cn(-c3c(Cl)cc(C(=O)O)cc3Cl)c2c1 [P-0128, 3,5-dichloro-4-(3-(3-chlorobenzyl)-6-(3,5-dimethylisoxazol-4-yl)-1H-pyrrolo[3,2-b]pyridin-1-yl)benzoic acid]",0.0001 to 1
14,"Cc1noc(C)c1-c1cnc2c(-c3ccccc3C(=O)O)cn(C(C)c3ccccc3)c2c1 (centres unmarked) [P-0120, 2-(6-(3,5-dimethylisoxazol-4-yl)-1-(1-phenylethyl)-1H-pyrrolo[3,2-b]pyridin-3-yl)benzoic acid]",0.0001 to 1
15,"Cc1noc(C)c1-c1cnc2c(c1)c(-c1ccc(C(=O)O)cc1OCC(F)(F)F)cn2[C@@H](C)c1ccccn1 [P-0115, (S)-4-(5-(3,5-dimethylisoxazol-4-yl)-1-(1-(pyridin-2-yl)ethyl)-1H-pyrrolo[2,3-b]pyridin-3-yl)-3-(2,2,2-trifluoroethoxy)benzoic acid]",0.0001 to 1
16,"Cc1noc(C)c1-c1cnc2c(Cc3ccccn3)cn(-c3ccc(C(=O)O)cn3)c2c1 [P-0011, 6-(6-(3,5-dimethylisoxazol-4-yl)-3-(pyridin-2-ylmethyl)-1H-pyrrolo[3,2-b]pyridin-1-yl)nicotinic acid]",0.0001 to 1
17,"Cc1noc(C)c1-c1cnc2c(-c3cc(C(=O)O)ccc3C#N)cn(C(C)(c3ccccn3)c3ccccn3)c2c1 [P-0166, 4-cyano-3-(1-(1,1-di(pyridin-2-yl)ethyl)-6-(3,5-dimethylisoxazol-4-yl)-1H-pyrrolo[3,2-b]pyridin-3-yl)benzoic acid]",0.0001 to 1
18,"Cc1noc(C)c1-c1cnc2c(-c3cccc(CC(=O)O)c3)c(C(F)(F)F)n([C@@H](C)c3ccccn3)c2c1 [P-0161, (S)-2-(3-(6-(3,5-dimethylisoxazol-4-yl)-1-(1-(pyridin-2-yl)ethyl)-2-(trifluoromethyl)-1H-pyrrolo[3,2-b]pyridin-3-yl)phenyl)acetic acid]",0.0001 to 1
19,"Cc1noc(C)c1-c1cnc2c(c1)c(-c1ccc(C(=O)O)cc1OC(C)C)cn2[C@@H](C)c1ccccn1 [P-0112, (S)-4-(5-(3,5-dimethylisoxazol-4-yl)-1-(1-(pyridin-2-yl)ethyl)-1H-pyrrolo[2,3-b]pyridin-3-yl)-3-isopropoxybenzoic acid]",0.0001 to 1
20,"Cc1noc(C)c1-c1cnc2c(-c3cccc(C(=O)O)c3)c(C(F)(F)F)n([C@@H](C)c3ccccn3)c2c1 [P-0162, (S)-3-(6-(3,5-dimethylisoxazol-4-yl)-1-(1-(pyridin-2-yl)ethyl)-2-(trifluoromethyl)-1H-pyrrolo[3,2-b]pyridin-3-yl)benzoic acid]",0.0001 to 1
21,"Cc1noc(C)c1-c1cnc2c(C(=O)c3cccc(OC(F)F)c3)cn(-c3ccnc(C(=O)O)c3)c2c1 [P-0099, 4-(3-(3-(difluoromethoxy)benzoyl)-6-(3,5-dimethylisoxazol-4-yl)-1H-pyrrolo[3,2-b]pyridin-1-yl)picolinic acid]",0.0001 to 1
22,"Cc1noc(C)c1-c1cnc2c(-c3ccccc3)cn(-c3c(Cl)cc(C(=O)O)cc3Cl)c2c1 [P-0150, 3,5-dichloro-4-(6-(3,5-dimethylisoxazol-4-yl)-3-phenyl-1H-pyrrolo[3,2-b]pyridin-1-yl)benzoic acid]",0.0001 to 1
23,"COc1ccc(C(=O)O)cc1-n1cc(CC2CCC2)c2ncc(-c3c(C)noc3C)cc21 [P-0098, 3-(3-(cyclobutylmethyl)-6-(3,5-dimethylisoxazol-4-yl)-1H-pyrrolo[3,2-b]pyridin-1-yl)-4-methoxybenzoic acid]",0.0001 to 1
